Laboratory results published in ChEMBL document CHEMBL4316651, “Halogenated Tyrosine Derivatives from the Tropical Eastern Pacific Zoantharians Antipathozoanthus hickmani and Parazoanthus darwini” (J Nat Prod, 2019).
pIC50: −log10 of the molar value. Calls of active or inactive are those of the source.

Key:
Staphylococcus aureus [1] = assay: Antimicrobial activity against methicillin-sensitive Staphylococcus aureus ATCC 29213 at 128 ug/ml by CLSI protocol based method; type: functional, organism-based
Klebsiella pneumoniae = assay: Antimicrobial activity against Klebsiella pneumoniae ATCC 700603 at 128 ug/ml by CLSI protocol based method; type: functional, organism-based
Escherichia coli = assay: Antimicrobial activity against Escherichia coli ATCC 25922 at 128 ug/ml by CLSI protocol based method; type: functional, organism-based
Pseudomonas aeruginosa = assay: Antimicrobial activity against Pseudomonas aeruginosa PAO1 at 128 ug/ml by CLSI protocol based method; type: functional, organism-based
Acinetobacter baumannii = assay: Antimicrobial activity against Acinetobacter baumannii MB5973 at 128 ug/ml by CLSI protocol based method; type: functional, organism-based
Staphylococcus aureus [2] = assay: Antimicrobial activity against methicillin-resistant Staphylococcus aureus MB5393 at 128 ug/ml by CLSI protocol based method; type: functional, organism-based
Candida albicans = assay: Antimicrobial activity against Candida albicans ATCC 64124 at 128 ug/ml by CLSI protocol based method; type: functional, organism-based
HepG2 = assay: Cytotoxicity in human HepG2 cells incubated for 24 hrs by MTT assay; type: functional, cell-based; conditions: for IC50: hepg2
A549 = assay: Cytotoxicity in human A549 cells incubated for 24 hrs by MTT assay; type: functional, cell-based
MIA PaCa-2 = assay: Cytotoxicity in human MIAPaCa2 cells incubated for 24 hrs by MTT assay; type: functional, cell-based

C[N+]1(C)CCC[C@@H]1C(=O)N[C@@H](Cc1cc(Br)c(O)c(I)c1)C(=O)O
inactive: Activity (Staphylococcus aureus [1]) | Activity (Klebsiella pneumoniae) | Activity (Escherichia coli) | Activity (Pseudomonas aeruginosa) | Activity (Acinetobacter baumannii) | Activity (Staphylococcus aureus [2]) | Activity (Candida albicans)

CCC(C)C(=O)Nc1nc2c([nH]1)[C@@H](C)c1[nH]c(NC(=O)C=C(C)C)nc1CC2 (some centres not stated)
inactive: Activity (Staphylococcus aureus [1]) | Activity (Klebsiella pneumoniae) | Activity (Escherichia coli) | Activity (Pseudomonas aeruginosa) | Activity (Acinetobacter baumannii) | Activity (Staphylococcus aureus [2]) | Activity (Candida albicans)
Not Active: IC50 (HepG2) | IC50 (A549) | IC50 (MIA PaCa-2)

C[N+](C)(C)CCc1cc(I)c(O)c(I)c1.O=C([O-])C(F)(F)F
Not Active: IC50 (HepG2) | IC50 (A549) | IC50 (MIA PaCa-2)
inactive: Activity (Staphylococcus aureus [1]) | Activity (Klebsiella pneumoniae) | Activity (Escherichia coli) | Activity (Pseudomonas aeruginosa) | Activity (Acinetobacter baumannii) | Activity (Staphylococcus aureus [2]) | Activity (Candida albicans)

C[N+](C)(C)CC(=O)N[C@@H](Cc1cc(Br)c(O)c(I)c1)C(=O)O.O=C([O-])C(F)(F)F
5.11: pIC50 (HepG2; Homo sapiens, HepG2, 24 h, read-out: IC50)
inactive: Activity (Staphylococcus aureus [1]) | Activity (Klebsiella pneumoniae) | Activity (Escherichia coli) | Activity (Pseudomonas aeruginosa) | Activity (Acinetobacter baumannii) | Activity (Staphylococcus aureus [2]) | Activity (Candida albicans)
Not Active: IC50 (A549) | IC50 (MIA PaCa-2)

C[N+]1(C)CCC[C@@H]1C(=O)N[C@@H](Cc1cc(Br)c(O)c(Br)c1)C(=O)O.O=C([O-])C(F)(F)F
Not Active: IC50 (HepG2) | IC50 (A549) | IC50 (MIA PaCa-2)
inactive: Activity (Staphylococcus aureus [1]) | Activity (Klebsiella pneumoniae) | Activity (Escherichia coli) | Activity (Pseudomonas aeruginosa) | Activity (Acinetobacter baumannii) | Activity (Staphylococcus aureus [2]) | Activity (Candida albicans)

C[N+](C)(C)CCc1cc(Br)c(O)c(I)c1.O=C([O-])C(F)(F)F
Not Active: IC50 (HepG2) | IC50 (A549) | IC50 (MIA PaCa-2)
inactive: Activity (Staphylococcus aureus [1]) | Activity (Klebsiella pneumoniae) | Activity (Escherichia coli) | Activity (Pseudomonas aeruginosa) | Activity (Acinetobacter baumannii) | Activity (Staphylococcus aureus [2]) | Activity (Candida albicans)

CC(C)=CC(=O)Nc1nc2c([nH]1)[C@H](C)c1[nH]c(NC(=O)C(C)C)nc1CC2
Not Active: IC50 (HepG2) | IC50 (A549) | IC50 (MIA PaCa-2)
inactive: Activity (Staphylococcus aureus [1]) | Activity (Klebsiella pneumoniae) | Activity (Escherichia coli) | Activity (Pseudomonas aeruginosa) | Activity (Acinetobacter baumannii) | Activity (Staphylococcus aureus [2]) | Activity (Candida albicans)

C[N+](C)(C)CC(=O)N[C@@H](Cc1cc(Br)c(O)c(Br)c1)C(=O)O.O=C([O-])C(F)(F)F
inactive: Activity (Staphylococcus aureus [1]) | Activity (Klebsiella pneumoniae) | Activity (Escherichia coli) | Activity (Pseudomonas aeruginosa) | Activity (Acinetobacter baumannii) | Activity (Staphylococcus aureus [2]) | Activity (Candida albicans)
Not Active: IC50 (HepG2) | IC50 (A549) | IC50 (MIA PaCa-2)
